Laboratory results as given in patent publication US20040121965A1, “Method of treating resistant tumors” (Wyeth Holdings Corporation, priority 2002, published 2004).
Read-outs that look alike come from different tables or passages of the source.

Columns and labels:
[1] = tested on: KB-8-5 (MDR1+); assay: Cell survival assay (SRB), KB-8-5 (MDR1+); settings: for IC50: Homo sapiens, MDR1, read-out: In vitro IC50 (nM) KB85
[2] = tested on: KB-3-1; assay: Cell survival assay (SRB), KB-3-1; assay type: cell-based, human; settings: Homo sapiens
Outline: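 IC50 for 50% growth inhibition after 3-day compound exposure, tested in duplicate. SRB protein staining of TCA-fixed cells (10% TCA, 1 hr, 4 °C), solubilised in Tris base and read by absorbance, was used as the survival read-out, with KB-3-1 grown in 20% FCS.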

[3] = tested on: KB-V1 (MDR1++); assay: Cell survival assay (SRB), KB-V1 (MDR1++); settings: for IC50: Homo sapiens, read-out: In vitro IC50 (nM) KBV1
[4] = KB 3-1, KB-3-1 cells (paclitaxel-sensitive parent), read-out: In vitro IC50 (nM) KB-3-1

| Structure (SMILES) | Ratio KB85/KB [1] | IC50 [1] [nM] | IC50 [2, 4] [nM] | Ratio KBV1/KB [3] | IC50 [3] [nM] | IC50 ([2]; KB 3-1, read-out: In vitro IC50 (nM) KB-3-1) [nM] |
| --- | --- | --- | --- | --- | --- | --- |
| CN[C@H](C(=O)N[C@H](C(=O)N(C)[C@H](/C=C(\C)C(=O)Nc1ccc(N=[N+]=[N-])cc1)C(C)C)C(C)(C)C)C(C)(C)c1ccccc1 [Example 111, N,β,β-trimethyl-L-phenylalanyl-N^1-{(1S,2E)-4-[(4-azidophenyl)amino]-1-isopropyl-3-methyl-4-oxo-2-butenyl}-N^1,3-dimethyl-L-valinamide] | 2.9 | 513 | 178 | 12.6 | 2240 | – |
| CN[C@H](C(=O)N[C@H](C(=O)N(C)[C@H](/C=C(\C)C(=O)O)C(C)C)C(C)(C)C)C(C)(C)c1ccc(OC)cc1OC [Example 59, 2-Methoxy-N,O,β,β-tetramethyl-L-tyrosyl-N^1-[(1S,2E)-3-carboxy-1-isopropyl-2-butenyl]-N^1,3-dimethyl-L-valinamide] | 5.5 | 13.2 | 2.4 | 446.7 | 1070 | – |
| CN[C@H](C(=O)N[C@H](C(=O)N(C)[C@H](/C=C(\C)C(=O)O)Cc1ccccc1)C(C)(C)C)C(C)(C)c1ccccc1 [Example 136, (E,4S)-4-[((2S)-3,3-dimethyl-2-{[(2S)-3-methyl-2-(methylamino)-3-phenylbutanoyl]amino}butanoyl)(methyl)amino]-2-methyl-5-phenyl-2-pentenoic Acid] | 2.8 | 1320 | 479 | 6.3 | ≥ 3000 | – |
| CN[C@@H](C(=O)N[C@H](C(=O)N(C)[C@H](/C=C(\C)C(=O)O)C(C)C)C(C)(C)C)C(C)(C)c1ccc(/C=C/c2ccccc2)cc1 [Example 147, N,β,β-trimethyl4-[(E)-2-phenylvinyl]-D-phenylalanyl-N^1-[(1S,2E)-3-carboxy-1-isopropylbut-2-enyl]-N^1,3-dimethyl-L-valinamide] | 1.7 | 20 | 11.6 | 53.4 | 620 | – |
| CN[C@H](C(=O)N[C@H](C(=O)N(C)[C@H](/C=C(\C)C(=O)O)C(C)C)C(C)(C)SC)C(C)(C)c1ccc(OC)cc1 [Example 84, N,O,β,β-tetramethyl-L-tyrosyl-N^1-[(1S,2E)-3-carboxy-1-isopropyl-2-butenyl]-N^1-methyl-3-(methylsulfanyl)-L-valinamide] | 3.2 | 5.1 | 1.6 | 188.7 | 302 | – |
| CCOC(=O)/C(C)=C/[C@H](C(C)C)N(C)C(=O)[C@@H](NC(=O)C(NC)C(C)(C)c1csc2ccccc12)C(C)(C)C (stereo partly drawn) [Example 25, 3-(1-Benzothien-3-yl)-N-methylvalyl-N^1-[(l S,2E)-4-ethoxy-1-isopropyl-3-methyl4-oxo-2-butenyl]-N^1,3-dimethyl-L-valinamide] | 3.2 | 1510 | 479 | 6.2 | 2950 | – |
| CN[C@H](C(=O)N[C@H](C(=O)N(C)[C@H](/C=C(\C)C(=O)O)C(C)C)C(C)(C)S(C)(=O)=O)C(C)(C)c1ccccc1 [Example 81, N,β,β-trimethyl-L-phenylalanyl-N^1-[(1S,2E)-3-carboxy-1-isopropyl-2-butenyl]-N^1-methyl-3-(methylsulfonyl)-L-valinamide] | 3.3 | 589 | 178 | 16.9 | ≥ 3000 | – |
| CN[C@H](C(=O)N[C@H](C(=O)N(C)[C@H](/C=C(\C)C(=O)O)C(C)C)C(C)(C)C)C(C)(C)c1ccc(C)cc1 [Example 11, N,β,β,4-Tetramethyl-L-phenylalanyl-N^1-[(1S,2E)-3-carboxy-1-isopropyl-2-butenyl]-N^1,3-dimethyl-L-valinamide] | 1.7 | 2.6 | 1.5 | 36.7 | 55 | – |
| CN[C@H](C(=O)N[C@H](C(=O)N(C)[C@H](/C=C(\C)C(=O)O)C(C)C)C(C)(C)C)C(C)(C)c1ccsc1 [Example 23, N-Methyl-3-thien-3-yl-L-valyl-N^1-[(1S,2E)-3-carboxy-1-isopropylbut-2-enyl]-N^1,3-dimethyl-L-valinamide] | 3.1 | 6.6 | 2.1 | 345.0 | 724 | – |
| CC/C(=C\[C@H](CC(C)C)N(C)C(=O)[C@@H](NC(=O)[C@@H](NC)C(C)(C)c1ccccc1)C(C)(C)C)C(=O)O [Example 76, N,β,β-Trimethyl-L-phenylalanyl-N^1-[(1S,2E)-3-carboxy-1-isobutyl-2-pentenyl]-N^1,3-dimethyl-L-valinamide] | 2.4 | 169 | 70.8 | 42.4 | ≥ 3000 | – |
| CNC(C(=O)N[C@H](C(=O)N(C)[C@H](/C=C(\C)C(=O)O)C(C)C)C(C)(C)C)C1(c2ccccc2)CC1 (stereo in doubt) [Example 143, (2E,4S)-2,5-dimethyl-4-(methyl{3-methyl-N-[(2R)-2-(methylamino)-2-(1-phenylcyclopropyl)acetyl]-L-valyl}amino)hex-2-enoic Acid] | 2.1 | 57 | 27 | 61.6 | 1660 | – |
| CCOC(=O)/C(C)=C/[C@H](C(C)C)N(C)C(=O)[C@@H](NC(=O)[C@@H](NC)C(C)(C)c1ccc(C)cc1)C(C)(C)C [Example 10a, N,β,β,4-Tetramethyl-L-phenylalanyl-N^1-[(1S,2E)-4-ethoxy-1-isopropyl-3-methyl4-oxo-2-butenyl]-N^1,3-dimethyl-L-valinamide] | 15.5 | 525 | 33.9 | 52.4 | 1780 | – |
| CN[C@H](C(=O)N[C@H](C(=O)N(C)[C@H](/C=C(\C)C(=O)O)C(C)C)C(C)(C)C)C(C)(C)c1ccc(C(=O)c2ccccc2)cc1 [Example 91, 4-benzoyl-N,β,β-trimethyl-L-phenylalanyl-N^1-[(1S,2E)-3-carboxy-1-isopropylbut-2-enyl]-N^1,3-dimethyl-L-valinamide] | 4.0 | 6.8 | 1.7 | 308.7 | 525 | – |
| CN[C@H](C(=O)N[C@H](C(=O)N(C)[C@@H](/C=C(\C)C(=O)O)C(C)C)C(C)(C)C)C(C)(C)c1ccccc1 [Example 157, N,β,β-trimethyl-L-phenylalanyl-N^1-[(1R,2E)-3-carboxy-1-isopropylbut-2-enyl]-N^1,3-dimethyl-L-valinamide] | 2.7 | 1650 | – | 5.0 | > 3000 | 605 |
| CN[C@H](C(=O)N[C@H](C(=O)N(C)[C@H](/C=C(\C)C(=O)NCCc1ccccc1)C(C)C)C(C)(C)C)C(C)(C)c1ccccc1 [Example 112, N,β,β-trimethyl-L-phenylalanyl-N^1-{(1S,2E)-1-isopropyl-3-methyl4-oxo4-[(2-phenylethyl)amino]but-2-enyl}-N^1,3-dimethyl-L-valinamide] | 1.4 | 226 | 163 | 10.8 | 1770 | – |
